System: Adult female Aedes aegypti
Assay: Membrane feeder repellency test: mosquitoes probing treated collagen membranes over blood-filled wells
Format: in vivo
Conditions: Total repellent 0.30%
Procedure: Adult female Aedes aegypti were obtained from the i2LResearch USA, Inc. colony. Two hundred fifty (250) mosquitoes were used per replicate (seven replicates). Mosquitoes were at least 6 days old and had been deprived of sucrose solution for at least 18 hours prior to testing.
An exposure container was used to present the mosquitoes with a choice of blood-filled wells that were covered with collagen membranes (3 cm in diameter). The collagen membranes were treated by pipetting 6.25 μl of the test treatment onto the appropriate membrane and spreading it evenly with the tip of the pipette.
Exposure container. A 30.5 cm×30.5 cm×30.5 cm container (rigid plastic frame and a sleeved entry on one side and a sliding trap door on the bottom). The container was supported by four (4 cm high) legs.
Membrane feeder. Five wells (3 cm in diameter x 8 mm in depth) in line on a hollow plastic block (6 cm wide x 22 cm long x 3 cm deep). The plastic block fit into the bottom of the exposure container. Hoses mounted on either end of the membrane feeder carried warm water that was pumped from a water bath. The sliding plastic trap door in the bottom of the exposure container covered and uncovered the wells in the membrane feeder, allowing mosquitoes to access the blood-filled wells that were covered with treated collagen membranes.
Study set-up. The membrane feeder was connected to a heated water bath, and warm water passed through the feeder via a circulating pump so that the wells were warmed to 96-100° F. Seventy-two (72) mg of ATP (disodium salt) were added to 26 ml of bovine blood. Sodium citrate was also added to the blood during collection to prevent clotting. The blood was poured into the wells until it completely filled each well (meniscus slightly above the level of the well).
Circular pieces (3 cm in diameter) of collagen membrane were placed over each of the wells. […]
Treatment and exposure to mosquitoes. […] The number of mosquitoes probing the membrane covering each well was recorded every two minutes for twenty minutes. […]

| SMILES | Test result, percentage relative to 0.3 wt % DEET in the same test [%] |
| --- | --- |
| CC1CCC(C(C)(C)O)C(O)C1 (stereo not drawn) [PMD, para-menthane-3,8-diol, reference compound] | 84.6 |
| CCNC(=O)C1CC(C)CCC1C(C)C (stereo not drawn) [WS3, N-ethyl-p-menthane-3-carboxamide] | 130.0 |
| CCN(CC)C(=O)c1cccc(C)c1 [DEET, N,N-diethyl-m-toluamide, reference compound] | 100.0 |

Source: patent US20210100242A1, “FORMULATIONS FOR CONTROL AND REPELLENCY OF BITING ARTHROPODS” (BEDOUKIAN RESEARCH, INC., priority 2019, published 2021)
